The values that follow come from ChEMBL document CHEMBL4828707, “Discovery of phenyl-linked symmetric small molecules as inhibitors of the programmed cell death-1/programmed cell death-ligand 1 interaction” (Eur J Med Chem, 2021).

Data set [1] concerns the target T1, Programmed cell death protein 1/Programmed cell death 1 ligand 1 (Homo sapiens, UniProt Q9NZQ7). Nature of the data set: (§1) Inhibition of Tag2-PD1/Tag1-PD-L1 (unknown origin) protein-protein interaction preincubated for 15 mins followed by addition of anti-Tag1-Eu3+ and anti-Tag2-XL665 measured after 2 hrs in dark by HTRF assay. It counts as protein-complex assay. (Time-resolved FRET reads energy transfer from a long-lived donor to a nearby acceptor.)

The target of data set [2] is T2, Programmed cell death protein 1/Programmed cell death 1 ligand 1 (Homo sapiens, UniProt Q15116+Q9NZQ7). Described as §1. In kind it is protein-complex assay.
T2 sequence (Q15116 whole entry): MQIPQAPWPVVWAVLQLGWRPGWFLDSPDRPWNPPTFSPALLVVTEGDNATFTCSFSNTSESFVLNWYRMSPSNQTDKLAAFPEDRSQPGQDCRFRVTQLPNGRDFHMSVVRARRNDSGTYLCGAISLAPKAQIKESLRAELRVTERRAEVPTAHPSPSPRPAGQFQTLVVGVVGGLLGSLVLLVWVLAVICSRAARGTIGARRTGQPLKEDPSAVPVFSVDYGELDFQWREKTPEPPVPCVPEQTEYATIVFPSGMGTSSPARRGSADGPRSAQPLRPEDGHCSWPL
T2 sequence (Q9NZQ7 whole entry): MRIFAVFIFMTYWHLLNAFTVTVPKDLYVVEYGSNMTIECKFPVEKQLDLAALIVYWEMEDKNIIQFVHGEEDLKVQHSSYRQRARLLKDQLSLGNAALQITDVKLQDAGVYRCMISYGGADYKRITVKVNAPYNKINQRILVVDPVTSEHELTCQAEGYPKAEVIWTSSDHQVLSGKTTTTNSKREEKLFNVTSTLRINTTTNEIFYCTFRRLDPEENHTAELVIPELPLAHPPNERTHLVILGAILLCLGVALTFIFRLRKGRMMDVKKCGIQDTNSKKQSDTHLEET
For the next data set, the target named is hERG (KCNH2) (Homo sapiens, UniProt Q12809). Put plainly: Inhibition of human ERG expressed in HEK293 cells at 10 uM measured by whole cell patch-clamp assay. It counts as cell-based. The note with it: HEK293 cells that express hERG. For orientation: In patch-clamp work, channel activity is measured electrically.
hERG (KCNH2), sequence (Q12809 whole entry): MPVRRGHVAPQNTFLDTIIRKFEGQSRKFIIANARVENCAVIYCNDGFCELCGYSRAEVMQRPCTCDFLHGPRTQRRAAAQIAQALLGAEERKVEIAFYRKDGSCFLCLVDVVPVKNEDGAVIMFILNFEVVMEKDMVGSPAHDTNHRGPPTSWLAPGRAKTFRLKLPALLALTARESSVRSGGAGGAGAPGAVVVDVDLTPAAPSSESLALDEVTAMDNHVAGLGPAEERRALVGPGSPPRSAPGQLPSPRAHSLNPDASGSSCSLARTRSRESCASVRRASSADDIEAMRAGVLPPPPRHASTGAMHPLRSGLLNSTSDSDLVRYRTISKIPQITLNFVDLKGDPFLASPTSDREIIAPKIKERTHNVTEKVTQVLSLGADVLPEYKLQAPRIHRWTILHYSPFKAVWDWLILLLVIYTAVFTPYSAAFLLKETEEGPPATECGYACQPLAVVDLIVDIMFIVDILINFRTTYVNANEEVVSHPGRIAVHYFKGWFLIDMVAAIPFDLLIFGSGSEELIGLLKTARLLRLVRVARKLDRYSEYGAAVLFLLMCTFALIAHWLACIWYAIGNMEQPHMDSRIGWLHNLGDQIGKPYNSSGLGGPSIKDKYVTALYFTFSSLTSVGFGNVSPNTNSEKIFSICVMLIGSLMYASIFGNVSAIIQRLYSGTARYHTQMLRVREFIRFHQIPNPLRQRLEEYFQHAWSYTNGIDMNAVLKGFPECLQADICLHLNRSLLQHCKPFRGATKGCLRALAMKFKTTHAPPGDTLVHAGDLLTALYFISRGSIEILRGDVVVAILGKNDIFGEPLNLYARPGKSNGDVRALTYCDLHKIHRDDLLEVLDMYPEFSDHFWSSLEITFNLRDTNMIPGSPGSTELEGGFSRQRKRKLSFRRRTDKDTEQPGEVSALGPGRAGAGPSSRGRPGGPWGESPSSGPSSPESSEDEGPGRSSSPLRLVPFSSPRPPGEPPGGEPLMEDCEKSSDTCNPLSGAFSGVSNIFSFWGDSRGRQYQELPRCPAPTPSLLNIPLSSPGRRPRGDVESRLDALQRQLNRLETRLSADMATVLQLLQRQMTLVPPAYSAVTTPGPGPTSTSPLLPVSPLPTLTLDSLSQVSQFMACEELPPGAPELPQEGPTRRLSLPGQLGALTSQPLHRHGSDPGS
In data set [3] the target is T2, Programmed cell death protein 1/Programmed cell death 1 ligand 1. The note with it: time 6.0 hrs.
Data set [4] concerns the target T1, Programmed cell death protein 1/Programmed cell death 1 ligand 1. Nature of the data set: Inhibition of PD1/PDL1 protein-protein interaction in human Jurkat cells overexpressing PD1 co-cultured with human Hep3B cells expressing PDL1 protein assessed as increase of TCR-mediated luminiscence measured after 6 hrs by NFAT reporter assay. It counts as cell-based.
The subject of another data set is L02. Nature of the data set: Cytotoxicity against human HL7702 cells at 2 to 10 uM measured after 48 hrs by CCK8 assay. In kind it is cell-based. The note with it: l02, 48 h, dose 2-10 µM.
Data set [5] is described as follows: Cytotoxicity against human HPDE6c7 cells at 2 to 10 uM measured after 48 hrs by CCK8 assay. In kind it is cell-based. The note with it: hpde6c7, 48 h, dose 2-10 µM. (Formazan colour is commonly taken as a measure of viable cells.)
A short description of data set [6]: Cytotoxicity against human PBMC at 3 uM measured after 48 hrs by CCK8 assay.

T1 sequence (Q15116 whole entry): as the sequence (Q15116 whole entry) above
T1 sequence (Q9NZQ7 whole entry): as the sequence (Q9NZQ7 whole entry) above

Take `Cc1c(-c2ccc3c(c2)OCCO3)cccc1-c1nnc(-c2ccc(CNCCO)cc2)o1`: the IC50 (in general, the concentration that inhibits the measured activity by half) in data set [1] is > 1000 nM.

For the compound `Cc1c(-c2ccc3c(c2)OC(=O)N(CC(=O)O)C3)cccc1-c1ccc2c(c1)OCCO2`, the IC50 entry in data set [2] is on record as “Not Active”.

Consider `COc1cc(-c2cccc(-c3cccc(-c4ccc(CNC(CO)CO)c(OC)c4)c3C)c2C)ccc1CNC(CO)CO`, for which the concentration for half-maximal inhibition (IC50) in data set [1] is > 1000 nM.

In turn, `COc1cc(-c2cccc(-c3cccc(-c4ccc(CNCC5CCC(=O)N5)c(OC)c4)c3C)c2C)ccc1CNCC1CCC(=O)N1` (stereo not drawn) registered an IC50 in data set [1] of 139 nM.

Take `COc1cc(-c2cccc(-c3cccc(-c4ccc(CNC(CO)C(=O)O)c(OC)c4)c3C)c2C)ccc1CNC(CO)C(=O)O` (stereo not drawn): at hERG (KCNH2), the inhibition (as a rule, the drop in the measured response relative to a control, in per cent) at 10 µM was -0.67%. In data set [3], this compound came in with an RLU of 30600. The compound further yielded an IC50 in data set [1] of 3.9 nM. The EC50 (in general, the concentration needed to bring the measured effect to its halfway point) in data set [4] stood at 775 nM. Further, the Activity result (in the data set on L02; in data set [5]; in data set [6]) was “Non-Toxic” each time.

As to `Cc1c(-c2ccc(CNCCO)cc2)cccc1-c1ccc2c(c1)OCCO2`, the inhibition at 10 µM against hERG (KCNH2) was determined as 98%. Besides, in data set [1], the IC50 came out at 16.2 nM.

For the compound `O=C(c1ccc(CNCCO)cc1)N1CCCc2c(-c3ccc4c(c3)OCCO4)cccc21`, the IC50 in data set [1] is > 1000 nM.

For `Cc1c(Nc2cc(-c3ccc(CNCCO)cc3)ccn2)cccc1-c1ccc2c(c1)OCCO2`, the IC50 in data set [1] was > 1000 nM.

On to `Cc1c(-c2ccc3c(c2)OCCO3)cccc1N1CCN(c2ccc(CNCCO)cn2)C1=O`, for which the IC50 in data set [1] was > 1000 nM.

Take `Cc1c(-c2ccc3c(c2)OCCO3)cccc1-c1ccc(CNCCO)o1`: the midpoint of inhibition in data set [1], the IC50, lay at 191 nM.

`COc1cc(-c2cccc(-c3cccc(-c4ccc(CNCC(O)C(=O)O)c(OC)c4)c3C)c2C)ccc1CNCC(O)C(=O)O` (stereo not drawn): the inhibition at 10 µM against hERG (KCNH2) was 7.72%. The RLU in data set [3] worked out at 27000. Besides, half-maximal inhibition in data set [1] (IC50) required 4.01 nM. For the same compound, the EC50 in data set [4] was 376 nM. Besides, the Activity entry (with L02; in data set [5]; in data set [6]) was “Non-Toxic” each time.

For the compound `Cc1c(-c2ccc3c(c2)OCCO3)cccc1N1CCN(c2cccc(CNCCO)n2)C1=O`, the IC50 in data set [1] was > 1000 nM.

`Cc1c(-c2ccc(CNCCO)cc2)cccc1-c1cccc(-c2ccc(CNCCO)cc2)c1C` gave an IC50 in data set [1] of 45.6 nM.

As for `COc1cc(-c2cccc(-c3cccc(-c4ccc(CNCCO)c(OC)c4)c3C)c2C)ccc1CNCCO`, the IC50 in data set [1] is 48.6 nM.

`Cc1c(NC(=O)c2ccc(CNCCO)cn2)cccc1-c1ccc2c(c1)OCCO2` gave an IC50 in data set [1] of 5.04 nM. Against the preceding compound, the IC50 is about 9.6-fold lower.

As for `O=C(c1ccc(CNCCO)cc1)n1ccc2c(-c3ccc4c(c3)OCCO4)cccc21`, the concentration for half-maximal inhibition (IC50) in data set [1] was > 1000 nM.

In data set [1], `Cc1c(-c2ccc3c(c2)OCCO3)cccc1-c1ccc(CNCCO)cn1` gave an IC50 of 19.6 nM. This lies in the double-digit nanomolar range.

Regarding `Cc1c(NS(=O)(=O)c2ccc(CNCCO)cc2)cccc1-c1ccc2c(c1)OCCO2`, the half-inhibitory concentration (IC50) in data set [1] is > 1000 nM.

As for `O=C(c1ccc(CNCCO)cc1)N1CCc2c(-c3cccc4c3CCN4C(=O)c3ccc(CNCCO)cc3)cccc21`, in data set [1], the IC50 worked out at 18.6 nM. In other words, the double-digit nanomolar range.

Turning to `Cc1c(-c2ccc3c(c2)OC(=O)N(CCO)C3)cccc1-c1ccc2c(c1)OCCO2`, the 50% inhibitory concentration (IC50) entry in data set [2] is recorded as “Not Active”.

With `Cc1c(-c2ccc3c(c2)OCCO3)cccc1-c1ccc(CNCCO)s1`, the IC50 result in data set [2] is listed as “Not Active”.

With `O=C(c1ccc(CNCCO)cc1)n1ccc2c(-c3cccc4c3ccn4C(=O)c3ccc(CNCCO)cc3)cccc21`, the IC50 in data set [1] worked out at 309 nM.

For `Cc1c(-c2ccc3c(c2)OCCO3)cccc1N1CCN(c2ccc(CNCCO)cc2)C1=O`, in data set [1], the IC50 is > 1000 nM.

Compound `O=C(c1ccc(CNCCO)cc1)N1CCc2c(-c3ccc4c(c3)OCCO4)cccc21` came in with an IC50 in data set [1] of 150 nM.

For the compound `Cc1c(-c2ccc3c(c2)OCCO3)cccc1N1Cc2cc(CNCCO)ccc2C1=O`, the concentration for half-maximal inhibition (IC50) in data set [1] was > 1000 nM.

On to `COc1cc(-c2cccc(-c3cccc(-c4ccc(CNC5CCOCC5)c(OC)c4)c3C)c2C)ccc1CNC1CCOCC1`, for which the half-maximal inhibitory concentration (IC50) in data set [1] is 34.4 nM.

On to `COc1cc(-c2cccc(-c3cccc(-c4ccc(CNC(CO)CO)c(OC)c4)c3C)c2C)ccc1CO`, for which, in data set [1], the 50% inhibitory concentration (IC50) came out at 48.7 nM.

On to `COc1cc(-c2cccc(-c3cccc(-c4ccc(CN5CC(C(=O)O)C5)c(OC)c4)c3C)c2C)ccc1CN1CC(C(=O)O)C1`, for which the inhibition at 10 µM on hERG (KCNH2) was 3.93%. In data set [3], this compound displayed an RLU of 35800. Besides, it took 4.23 nM to reach half-maximal inhibition in data set [1] (IC50). Moreover, the EC50 in data set [4] worked out at 104 nM. The Activity result (in the data set on L02; in data set [5]; in data set [6]) was “Non-Toxic” throughout.

With `COc1cc(-c2cccc(-c3cccc(-c4ccc(CNC5CCCC5O)c(OC)c4)c3C)c2C)ccc1CNC1CCCC1O` (stereo not drawn), inhibition in data set [1] was half-maximal at 36.4 nM (IC50). This lies in the double-digit nanomolar range.

Take `Cc1c(-c2ccc3c(c2)OCCO3)cccc1N1CCN(c2cccc(CNCCO)c2)C1=O`: the IC50 in data set [1] is > 1000 nM.

Turning to `Cc1c(-c2ccc3c(c2)NCC(=O)N(CCO)C3)cccc1-c1ccc2c(c1)OCCO2`, in data set [2], the concentration for half-maximal inhibition (IC50) entry is “Not Active”.

`Cc1c(NC(c2ccc(CNCCO)cc2)C(F)(F)F)cccc1-c1ccc2c(c1)OCCO2` (stereo not drawn): in data set [1], the IC50 is > 1000 nM.

On to `COc1cc(-c2cccc(-c3ccc4c(c3)OCCO4)c2C)ccc1CNCCO`, for which, at hERG (KCNH2), the inhibition at 10 µM is 4.71%. Moreover, in data set [2], the IC50 entry was “Not Active”.

In the case of `Cc1c(Nc2cccc(-c3ccc(CNCCO)cc3)n2)cccc1-c1ccc2c(c1)OCCO2`, the IC50 in data set [1] is > 1000 nM.

In the case of `Cc1c(NC(=O)c2ccc(CNCCO)nc2)cccc1-c1ccc2c(c1)OCCO2`, the IC50 in data set [1] was > 1000 nM.

Consider `Cc1c(NC(=O)c2ccc(CNCCO)cc2)cccc1-c1ccc2c(c1)OCCO2`, for which, in data set [1], the 50% inhibitory concentration (IC50) was > 1000 nM.

Regarding `COc1cc(-c2cccc(-c3cccc(-c4ccc(CN5CCCCC5C(=O)O)c(OC)c4)c3C)c2C)ccc1CO` (stereo not drawn), the IC50 in data set [1] is 472 nM.

`Cc1c(-c2ccc3c(c2)CCCN(CCO)C3)cccc1-c1ccc2c(c1)OCCO2`: the concentration for half-maximal inhibition (IC50) entry in data set [2] was “Not Active”.

`COc1cc(-c2cccc(-c3cccc(-c4ccc(CO)c(OC)c4)c3C)c2C)ccc1CO` came in with a half-inhibitory concentration (IC50) in data set [1] of 481 nM.

In the case of `Cc1c(-c2ccc(CNCCO)cn2)cccc1-c1cccc(-c2ccc(CNCCO)cn2)c1C`, the concentration for half-maximal inhibition (IC50) in data set [1] is > 1000 nM.

For the compound `Cc1c(-c2ccc3c(c2)OCCO3)cccc1N(C)C(=O)c1ccc(CNCCO)cn1`, the 50% inhibitory concentration (IC50) in data set [1] amounted to 764 nM.

With `Cc1c(-c2ccc3c(c2)OCCO3)cccc1N1CCN(c2ncc(CNCCO)s2)C1=O`, in data set [1], the concentration for half-maximal inhibition (IC50) is > 1000 nM.

As to `Cc1c(C(=O)Nc2ccc(CNCCO)cc2)cccc1-c1ccc2c(c1)OCCO2`, the IC50 in data set [1] is > 1000 nM.
